From patent publication EP4168403B1 (priority 2020, dated 2021)
Where “and” joins values, the source holds several entries; their conditions need not be identical. Identical values can stand only once. Like-named read-outs stand apart in the source and are kept apart here.

Assays:
[1] = biological target: T1, human recombinant butyrylcholinesterase (hBuChE; EC 3.1.1.8) (Homo sapiens, UniProt P06276); assay: Cholinesterase inhibition in vitro assay (modified Ellman's method), BuChE; type: biochemical; conditions: pH 7.4, 37 °C, mean ± SEM, read-out: BChE (IC50 µM)
T1 construct: purchased Sigma-Aldrich (Prague, Czech Republic)
Procedure: The AChE and BuChE inhibitory activity of the tested compounds was determined using a modified Ellman's method^31, 32.Human red-blood cell acetylcholinesterase (hAChE; EC 3.1.1.7), and human recombinant butyrylcholinesterase (hBuChE; EC 3.1.1.8), 5,5'-dithiobis(2-nitrobenzoic acid) (Ellman's reagent, DTNB), phosphate buffer (PB, pH 7.4), acetylthiocholine (ATC), and butyrylthiocholine (BTC), were purchased from Sigma-Aldrich (Prague, Czech Republic). Nunc polystyrene 96-well microplates with flat-bottom shape (ThermoFisher Scientific, USA) were used for the measurement and all the assay were carried out in 0.1 M KH2PO4/K2HPO4 buffer, pH 7.4. Enzyme solution was prepared at activity 2.0 units/mL in 2 mL aliquots. The assay mixture (100 µL) consisted of 40 µL of 0.1 M phosphate buffer (pH 7.4), 20 µL of 0.01 M DTNB, 10 µL of enzyme, and 20 µL of 0.01 M substrate (ATC iodide solution). Tested compounds were dissolved first in methanol (BIGI 23 in DMSO) and then further diluted by assay buffer to the final concentration. […]. […] Enzyme with the inhibitor was preincubated for 5 min in the assay mixture and then the reaction was started by addition of 20 µL of substrate (ATC for AChE, BTC for BuChE). The enzyme activity was determined by measuring the increase in absorbance at 412 nm at 37 °C at 2 min intervals using a Multi-mode microplate reader Synergy 2 (Vermont, USA). Each concentration was assayed in triplicate. The obtained data were used to compute the percentage inhibition (I; Equation 1): I = 1−(ΔAi)/(ΔA0) [%] [formula] ΔAi indicates the absorbance change provided by cholinesterase exposed to AChE inhibitors and ΔA0 indicates absorbance change caused by intact cholinesterase (phosphate buffer was used instead of AChE inhibitor solution). […] Calculations were performed using software Microsoft Excel (Redmont, WA, USA) and GraphPad Prism version 5.02 for Windows, GraphPad Software, San Diego, CA, USA.

[2] = system: voltage-gated Ca^2+ channels (VGCC); assay: Calcium channel antagonist assay (K+-evoked cytosolic Ca2+, Fluo-4); type: cell-based
Procedure: The cytosolic Ca^2+ has been measured in SH-SY5Y cells. SH-SY5Y cells were maintained similarly to what was previously described^30. Free cytosolic Ca^2+ was measured using the fluorescent Ca^2+ indicator Fluo-4/AM (Fluo-4 acetomethoxyester). SH-SY5Y cells were seeded onto 96-well black plates at a density of 10^5 cells per well, achieving confluence after 48 h. Cells were washed with Krebs-Hepes solution (KH, in mM: 144 NaCl, 5.9 KCl, 1.2 MgCl2, 2 CaCl2, 11 D-glucose, 10 HEPES, pH 7.4). Cells were loaded with 10 µM Fluo-4/AM and 0.2% pluronic acid in KH and incubated for 45 min at 37 °C in the dark. Then, cells were washed twice with KH to remove the excess of probe. Tested compounds were incubated 10 min before K+ 70 mM was applied to evoke the increment of cytosolic Ca^2+. To normalize Fluo-4 signals, Triton X-100 (5%) and 1 M MnCl2 were applied to register both maximal and minimal fluorescence, respectively. The experiments were analyzed at excitation and emission wavelengths of 485 and 520 nm, respectively, and fluorescence was measured in a fluorescence microplate reader (FLUOstar Optima, BMG, Germany). Data were calculated as a percentage of Fmax - Fmin.
The blocking effect of the depolarization-induced Ca^2+ uptake was investigated in SH-SY5Y neuroblastoma cells stimulated with an extracellular concentration of K+ 70 mM, which induces the cell Ca^2+ levels elevation by opening voltage-gated Ca^2+ channels (VGCC), monitored with the Ca^2+-sensitive fluorescent dye Fluo-4. Nifedipine was used as positive standard.

[3] = biological target: T2, Human red-blood cell acetylcholinesterase (hAChE; EC 3.1.1.7) (Homo sapiens, UniProt P22303); assay: biochemical; conditions: pH 7.4, 37 °C, mean ± SEM, read-out: AChE (IC50 µM)
T2 construct: Human red-blood cell acetylcholinesterase; purchased Sigma-Aldrich (Prague, Czech Republic); host or cells: human red blood cells
Procedure: The AChE and BuChE inhibitory activity of the tested compounds was determined using a modified Ellman's method^31, 32.Human red-blood cell acetylcholinesterase (hAChE; EC 3.1.1.7), and human recombinant butyrylcholinesterase (hBuChE; EC 3.1.1.8), 5,5'-dithiobis(2-nitrobenzoic acid) (Ellman's reagent, DTNB), phosphate buffer (PB, pH 7.4), acetylthiocholine (ATC), and butyrylthiocholine (BTC), were purchased from Sigma-Aldrich (Prague, Czech Republic). Nunc polystyrene 96-well microplates with flat-bottom shape (ThermoFisher Scientific, USA) were used for the measurement and all the assay were carried out in 0.1 M KH2PO4/K2HPO4 buffer, pH 7.4. Enzyme solution was prepared at activity 2.0 units/mL in 2 mL aliquots. The assay mixture (100 µL) consisted of 40 µL of 0.1 M phosphate buffer (pH 7.4), 20 µL of 0.01 M DTNB, 10 µL of enzyme, and 20 µL of 0.01 M substrate (ATC iodide solution). Tested compounds were dissolved first in methanol (BIGI 23 in DMSO) and then further diluted by assay buffer to the final concentration. […] Enzyme with the inhibitor was preincubated for 5 min in the assay mixture and then the reaction was started by addition of 20 µL of substrate (ATC for AChE, BTC for BuChE). […] Each concentration was assayed in triplicate. The obtained data were used to compute the percentage inhibition (I; Equation 1): I = 1−(ΔAi)/(ΔA0) [%] [formula] ΔAi indicates the absorbance change provided by cholinesterase exposed to AChE inhibitors and ΔA0 indicates absorbance change caused by intact cholinesterase (phosphate buffer was used instead of AChE inhibitor solution).

[4] = Oxygen Radical Absorbance Capacity (ORAC-FL) assay; conditions: Trolox equivalents (µmol of Trolox equivalent/µmol of compound)
Procedure: The radical scavenging capacity of the TFAHs was determined by the ORAC-FL method using fluorescein as a fluorescent probe^33,34. (±)-6-Hydroxy-2,5,7,8-tetramethylchromane-2-carboxylic acid (Trolox), fluorescein (FL) and 2,2'-azobis(amidinopropane) dihydrochloride (AAPH) were purchased from Sigma-Aldrich. A Varioskan Flash plate reader with built-in injectors (Thermo Scientific) was used. The reaction was carried out at 37 °C in 75 mM phosphate buffer (pH= 7.4), and the final volume reaction mixture was 200 µL. The tested compounds and Trolox standard were dissolved in DMSO to 10 mM and further diluted in 75 mM phosphate buffer (pH= 7.4). The final concentrations were 0.1-1 µM for the tested compounds and 1-8 µM for Trolox standard. The blank was composed of 120 µL of FL, 60 µL of AAPH and 20 µL of phosphate buffer (pH=7.4) and was added in each assay.
The net AUC corresponding to a sample was calculated as follows: Net AUC = AUCantioxidant −AUCblank . [formula]
Regression equations were calculated by plotting the net AUC against the antioxidant concentration. The ORAC value was obtained by dividing the slope of the latter curve between the slope of the Trolox curve obtained in the same assay. Final ORAC values were expressed as µmol of Trolox equivalent/µmol of TFAH.

[5] = SH-SY5Y cells, K+ 70 mM, mean ± SEM, read-out: IC50 (µM) Calcium channels blockade

T1 sequence (P06276 29-602): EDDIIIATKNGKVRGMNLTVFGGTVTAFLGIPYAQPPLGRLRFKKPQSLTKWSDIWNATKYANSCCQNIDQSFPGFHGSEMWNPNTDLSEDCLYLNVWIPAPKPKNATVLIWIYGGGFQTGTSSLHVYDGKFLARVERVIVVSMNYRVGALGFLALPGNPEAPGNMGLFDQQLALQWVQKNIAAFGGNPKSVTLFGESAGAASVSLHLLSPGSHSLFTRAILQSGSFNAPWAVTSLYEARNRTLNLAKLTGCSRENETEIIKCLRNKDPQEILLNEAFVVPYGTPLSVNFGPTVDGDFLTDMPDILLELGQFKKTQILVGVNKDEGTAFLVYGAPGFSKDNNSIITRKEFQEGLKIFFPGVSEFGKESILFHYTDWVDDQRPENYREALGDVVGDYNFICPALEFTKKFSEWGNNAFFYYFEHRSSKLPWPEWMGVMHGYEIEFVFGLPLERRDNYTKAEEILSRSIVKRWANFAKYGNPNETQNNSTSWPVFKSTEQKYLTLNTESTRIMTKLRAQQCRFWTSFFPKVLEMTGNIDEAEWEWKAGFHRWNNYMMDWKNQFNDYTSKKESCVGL
T2 sequence (P22303 32-617 isoform P22303-2 limits assumed): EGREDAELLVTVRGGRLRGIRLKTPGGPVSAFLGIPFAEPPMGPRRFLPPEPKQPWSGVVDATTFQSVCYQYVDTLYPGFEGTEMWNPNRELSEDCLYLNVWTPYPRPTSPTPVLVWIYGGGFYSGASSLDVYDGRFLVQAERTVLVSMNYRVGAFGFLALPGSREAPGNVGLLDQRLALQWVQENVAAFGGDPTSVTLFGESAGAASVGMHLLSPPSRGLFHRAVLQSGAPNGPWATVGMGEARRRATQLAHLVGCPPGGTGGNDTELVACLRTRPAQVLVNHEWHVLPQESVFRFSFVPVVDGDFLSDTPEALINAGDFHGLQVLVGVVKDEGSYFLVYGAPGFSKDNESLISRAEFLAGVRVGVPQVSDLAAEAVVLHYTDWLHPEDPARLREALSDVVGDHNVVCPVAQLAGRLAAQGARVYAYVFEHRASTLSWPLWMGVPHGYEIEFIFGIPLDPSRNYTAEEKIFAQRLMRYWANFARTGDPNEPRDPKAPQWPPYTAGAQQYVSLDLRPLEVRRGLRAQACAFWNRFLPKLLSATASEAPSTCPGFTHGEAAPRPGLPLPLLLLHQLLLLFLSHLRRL

Row | SMILES | IC50 [1] [µM] | IC50 [2, 5] [µM] | IC50 [3] [µM] | ORAC [4] | IC50 ([2]; read-out: IC50 (µM) Calcium channels blockade, SH-SY5Y cells, K+ 70 mM, mean ± SEM) [µM]
1 | CCOC(=O)C1=C(C)N(CCCC2CCN(Cc3ccccc3)CC2)C(=O)NC1c1coc2c(Cl)cc(Cl)cc2c1=O (stereo not shown) [BIGI-3m, ethyl 1-(3-(1-benzylpiperidin-4-yl)propyl)-4-(6,8-dichloro-4-oxo-4H-chromen-3-yl)-6-methyl-2-oxo-1,2,3,4-tetrahydropyrimidine-5-carboxylate] | 14.4 ± 1.2 | 5 ± 2 | 0.34 ± 0.02 | 3.29± 0.10 TE | 
2 | COc1cc(/C=C/C(=O)O)ccc1O [Ferulic acid, reference compound] |  |  |  | 3.7 TE and 3.7 ± 0.2 TE | 
3 | CCOC(=O)C1=C(C)N(CCCC2CCN(Cc3ccccc3)CC2)C(=O)NC1c1coc2ccc(Br)cc2c1=O (stereo not shown) [BIGI-3j, ethyl 1-(3-(1-benzylpiperidin-4-yl)propyl)-4-(6-bromo-4-oxo-4H-chromen-3-yl)-6-methyl-2-oxo-1,2,3,4-tetrahydropyrimidine-5-carboxylate] | 6.51 ± 0.45 | 3.8 ± 0.1 | 0.18 ± 0.01 | 3.24 ± 0.02 TE | 
4 | CCOC(=O)C1=C(C)N(CCCC2CCN(Cc3ccccc3)CC2)C(=O)NC1c1coc2cc(C)c(Cl)cc2c1=O (stereo not shown) [BIGI-3l, ethyl 1-(3-(1-benzylpiperidin-4-yl)propyl)-4-(6-chloro-7-methyl-4-oxo-4H-chromen-3-yl)-6-methyl-2-oxo-1,2,3,4-tetrahydropyrimidine-5-carboxylate] | 6.26 ± 0.31 | 3.2 ± 0.2 | 0.17 ± 0.01 | 1.68 ± 0.18 TE | 
5 | CCOC(=O)C1=C(C)N(CC2CCN(Cc3ccccc3)CC2)C(=O)NC1c1coc2cc(CC)ccc2c1=O (stereo not shown) [BIGI-3c, ethyl 1-((1-benzylpiperidin-4-yl)methyl)-4-(7-ethyl-4-oxo-4H-chromen-3-yl)-6-methyl-2-oxo-1,2,3,4-tetrahydropyrimidine-5-carboxylate] | 36.1 ± 3.1 | 3 ± 0.9 | 6.08 ± 0.38 | 3.51 ± 0.09 TE | 
6 | CCOC(=O)C1=C(C)N(CCCC2CCN(Cc3ccccc3)CC2)C(=O)NC1c1coc2ccc(C(C)C)cc2c1=O (stereo not shown) [BIGI-3n, ethyl 1-(3-(1-benzylpiperidin-4-yl)propyl)-4-(6-isopropyl-4-oxo-4H-chromen-3-yl)-6-methyl-2-oxo-1,2,3,4-tetrahydropyrimidine-5-carboxylate] | 4.35 ± 0.23 | 1.7 ± 0.4 | 0.58 ± 0.02 | 2.45± 0.04 TE | 
7 | CCOC(=O)C1=C(C)N(CCC2CCN(Cc3ccccc3)CC2)C(=O)NC1c1coc2cc(CC)ccc2c1=O (stereo not shown) [BIGI-3f, ethyl 1-(2-(1-benzylpiperidin-4-yl)ethyl)-4-(7-ethyl-4-oxo-4H-chromen-3-yl)-6-methyl-2-oxo-1,2,3,4-tetrahydropyrimidine-5-carboxylate] | 5.96 ± 0.22 | 2.2 ± 0.6 | 0.3 ± 0.01 | 2.20 ± 0.05 TE | 
8 | CCOC(=O)C1=C(C)N(CCC2CCN(Cc3ccccc3)CC2)C(=O)NC1c1coc2ccccc2c1=O (stereo not shown) [BIGI-3d, ethyl 1-(2-(1-benzylpiperidin-4-yl)ethyl)-6-methyl-2-oxo-4-(4-oxo-4H-chromen-3-yl)-1,2,3,4-tetrahydropyrimidine-5-carboxylate] | 6.58 ± 0.34 | 9 ± 2 | 0.23 ± 0.01 | 2.53 ± 0.17 TE | 
9 | CCOC(=O)C1=C(C)N(CCC2CCN(Cc3ccccc3)CC2)C(=O)NC1c1coc2cc(C)c(Cl)cc2c1=O (stereo not shown) [BIGI-3g, ethyl 1-(2-(1-benzylpiperidin-4-yl)ethyl)-4-(6-chloro-7-methyl-4-oxo-4H-chromen-3-yl)-6-methyl-2-oxo-1,2,3,4-tetrahydropyrimidine-5-carboxylate] | 15.7 ± 0.9 | 1.7 ± 0.6 | 0.29 ± 0.01 | 2.56 ± 0.13 TE | 
10 | COC(=O)C1=C(C)NC(C)=C(C(=O)OC)C1c1ccccc1[N+](=O)[O-] [Nifedipine, reference compound] |  |  |  |  | 6.2 ± 0.2
11 | CCOC(=O)C1=C(C)N(CC2CCN(Cc3ccccc3)CC2)C(=O)NC1c1coc2ccc(Br)cc2c1=O (stereo not shown) [BIGI-3b, ethyl 1-((1-benzylpiperidin-4-yl)methyl)-4-(6-bromo-4-oxo-4H-chromen-3-yl)-6-methyl-2-oxo-1,2,3,4-tetrahydropyrimidine-5-carboxylate] |  | 6 ± 3 |  | 2.06 ± 0.17 TE | 
12 | CCOC(=O)C1=C(C)N(CC2CCN(Cc3ccccc3)CC2)C(=O)NC1c1coc2ccccc2c1=O (stereo not shown) [BIGI-3a, ethyl 1-((1-benzylpiperidin-4-yl)methyl)-6-methyl-2-oxo-4-(4-oxo-4H-chromen-3-yl)-1,2,3,4-tetrahydropyrimidine-5-carboxylate] | 14.8 ± 0.7 | 14 ± 3 |  | 3.29 ± 0.07 TE | 
13 | CCOC(=O)C1=C(C)N(CCCC2CCN(Cc3ccccc3)CC2)C(=O)NC1c1coc2ccccc2c1=O (stereo not shown) [BIGI-3i, ethyl 1-(3-(1-benzylpiperidin-4-yl)propyl)-6-methyl-2-oxo-4-(4-oxo-4H-chromen-3-yl)-1,2,3,4-tetrahydropyrimidine-5-carboxylate] | 4.29 ± 0.09 | 8 ± 1 | 0.15 | 3.09 ± 0.07 TE | 
